Measurements published in PMC7481406, “Bifunctional supramolecular nanofiber inhibits atherosclerosis by enhancing plaque stability and anti-inflammation in apoE^-/- mice” (Theranostics, 2020).
Where a SMILES comes first, the peptide text is derived from it. [ ]: non-standard residue; d: D form. The star is where a group is joined. Naproxen = COc1ccc2cc([C@H](C)C(=O)*)ccc2c1; Acetyl(2-naphthyl) = O=C(Cc1ccc2ccccc2c1)*

What was measured:
receptor of IGF-1 = conditions: earlier report of the same authors; cited from earlier work
Excerpt: Natural and recombinant human IGF-1 proteins (rhIGF-1) are limited in short half-lifes in biological systems and poor tissue retention. […] The C domain of […] in IGF-1 regulates its receptor binding and directly affects the biological activity of IGF-1. Nishida et al. reported that the C-domain of IGF-1 can promote the healing of corneal epithelial wounds. They screened a series of 12-amino acids of GST fusion protein and obtained mutants whose various ...

[1] = molecular target: recombinant human Insulin-like Growth Factor-I Receptor (rhIGF-1R) (Homo sapiens, UniProt P08069); test: Microscale thermophoresis binding to rhIGF-1R; conditions: for dissociated constant (KD) with rhIGF-1R: microscale thermophoresis, NT-647 labelled rhIGF-1R, PBS with 0.05% Tween 20 pH 7.4, compound 0.054 nM to 2 μM
Sequence of recombinant human Insulin-like Growth Factor-I Receptor (rhIGF-1R) (P08069 31-1367): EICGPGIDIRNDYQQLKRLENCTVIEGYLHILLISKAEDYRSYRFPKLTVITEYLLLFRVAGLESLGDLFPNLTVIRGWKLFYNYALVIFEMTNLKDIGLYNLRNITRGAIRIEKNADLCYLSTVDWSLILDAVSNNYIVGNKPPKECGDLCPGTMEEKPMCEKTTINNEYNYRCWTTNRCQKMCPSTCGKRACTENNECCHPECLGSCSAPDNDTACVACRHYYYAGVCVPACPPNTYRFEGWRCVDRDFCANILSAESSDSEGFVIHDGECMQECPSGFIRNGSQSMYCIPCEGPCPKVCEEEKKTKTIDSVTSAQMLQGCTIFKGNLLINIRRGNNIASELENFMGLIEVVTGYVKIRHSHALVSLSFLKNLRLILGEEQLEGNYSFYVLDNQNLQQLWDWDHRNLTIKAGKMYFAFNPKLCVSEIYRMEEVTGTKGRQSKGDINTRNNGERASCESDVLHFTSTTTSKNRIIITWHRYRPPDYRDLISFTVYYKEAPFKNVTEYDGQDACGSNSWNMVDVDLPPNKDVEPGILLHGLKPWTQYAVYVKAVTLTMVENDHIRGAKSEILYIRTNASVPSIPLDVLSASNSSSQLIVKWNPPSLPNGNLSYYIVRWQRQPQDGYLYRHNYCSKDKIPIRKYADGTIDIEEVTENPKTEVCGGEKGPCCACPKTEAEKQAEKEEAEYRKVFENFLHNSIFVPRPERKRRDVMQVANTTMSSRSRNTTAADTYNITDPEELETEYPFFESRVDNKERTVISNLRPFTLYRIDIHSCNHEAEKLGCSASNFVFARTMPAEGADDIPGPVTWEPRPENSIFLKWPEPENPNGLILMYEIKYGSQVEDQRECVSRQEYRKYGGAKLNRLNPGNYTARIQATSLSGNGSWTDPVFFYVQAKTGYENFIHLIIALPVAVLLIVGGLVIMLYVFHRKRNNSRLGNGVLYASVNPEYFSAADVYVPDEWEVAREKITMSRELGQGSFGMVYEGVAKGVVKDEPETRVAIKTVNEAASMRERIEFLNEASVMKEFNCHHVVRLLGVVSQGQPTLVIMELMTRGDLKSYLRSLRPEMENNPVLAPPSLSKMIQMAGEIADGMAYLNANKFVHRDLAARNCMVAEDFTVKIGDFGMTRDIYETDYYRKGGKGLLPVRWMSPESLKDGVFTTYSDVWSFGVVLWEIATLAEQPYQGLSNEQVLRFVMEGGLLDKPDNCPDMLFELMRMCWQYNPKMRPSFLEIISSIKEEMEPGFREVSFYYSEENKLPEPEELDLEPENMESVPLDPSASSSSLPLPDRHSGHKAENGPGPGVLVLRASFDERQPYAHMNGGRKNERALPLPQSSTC
Excerpt: (§1) The transparency of the prepared hydrogel in the visible light range of 380 nm-780 nm is detected by UV-Vis spectroscopy (Lambda 35 UV/Vis Spectrometer, Perkin-Elmer). […] Therefore, we conducted microscale thermophoresis experiments to determine their binding affinity to recombinant human Insulin-like Growth Factor-I Receptor (rhIGF-1R).
rhIGF-1R was labeled with the fluorescent dye NT-647 using a Monolith NT™ Protein Labelling Kit (cysteine-reactive) (NanoTemper Technologies, Germany). PBS buffer containing 0.05% Tween 20 (pH 7.4) was used as the assay buffer. For the interaction experiments of fluorescent proteins with Compound 1, 2, 3or 4, the concentration of labeled proteins were kept constant, while the concentration of Compound 1, 2, 3or 4 varied from 0.054 nM to 2 μM. Then, the solution of fluorescent proteins was mixed with solutions containing different concentrations of Compound 1, 2, 3or 4 at 1:1 volume ratio. After a short incubation time, the samples were loaded into MST NT.115 standard glass capillaries and the analysis was performed using the Monolith NT.115 system (NanoTemper Technologies, Germany). The KD value was calculated using the NanoTemper software package.

[2] = Transparency of hydrogels by UV-Vis spectroscopy; assay type: physicochemical; conditions: visible light range 380 nm-780 nm, hydrogel in PBS pH 7.4, 0.5 wt%
Excerpt: as §1

[3] = TEM of nanofibers in hydrogels; assay type: physicochemical; conditions: hydrogel in PBS, 0.5 wt%
[4] = Rheometer mechanical properties of hydrogels; assay type: physicochemical; conditions: hydrogel 1.0 wt%
Experimental: We then used a rheometer to characterize the mechanical properties of the hydrogels. […] The storage modulus (G') of the four hydrogels was approximately an order of magnitude higher than their loss modulus (G''), which indicated the formation of true gels. ApoE^-/- mice were then subcutaneously (s.c.) injected with 100 μL of the different hydrogels or natural IGF-1 protein solution per week and simultaneously fed a high-fat diet for 16 weeks. Atherosclerotic lesion formation was assessed after 16 weeks.

[5] = test system: peritoneal macrophages from apoE-/- mice; test: Foam cell formation, Oil Red O staining after ox-LDL; assay type: cell-based, mouse; conditions: same molar concentration, after exposure to ox-LDL, >10 lipid droplets per cell, n=5
Experimental: Human aortic smooth muscle cells (HASMCs) were cultured in a completed DMEM F12 medium (10% fetal bovine serum, 50 μg/mL penicillin, and 50 μg/mL streptomycin). Peritoneal macrophages were cultured in complete RPMI1640 medium (10% fetal bovine serum, 50 μg/mL penicillin, 50 μg/mL streptomycin and 2 mM glutamine). HASMCs or peritoneal macrophages were seeded on a 6-well plate at the density of 3×10^5 cells per well before treatment. […] To assess foam cell formation in vitro, peritoneal macrophages collected from apoE^-/- mice were plated on cover slips in 12-well plates. Subsequently, induction and determination of foam cells was conducted as previously described.

[6] = Body weight and serum lipid profile; assay type: in vivo, mouse; conditions: for HDL-C / LDL-C / TG (triglyceride) / Total-C (serum total cholesterol): serum
Excerpt: (§2) All animal studies were approved by the Animal Ethics Committee of Nankai University and followed the Tianjin Committee of Use and Care of Laboratory Animals. Male apoE^‑/‑ mice (~22 g bodyweight, ~8 weeks old) were purchased from the Beijing Vital River Laboratory Animal Technology Co., Ltd, which were used to set up the atherosclerotic model, as previously described. ApoE^-/- mice were randomly assigned into six groups (15 per group) and fed with HFD (21% fat plus 0.5% cholesterol; Mediscience, Ltd, Jiangsu, China; Cat No. MD12015A) for 16 weeks. […] At the end of the experiment, all mice were euthanatized by an overdose of 2,2,2-tribromoethanol (640 mg/kg, IP injection), followed by collection of aortas, blood, and peritoneal macrophages. Serum was prepared to determine levels of TNF-α, IL-1β and IL-6 by ELISA kits purchased from ABclonal, Inc. (Wuhan, China). The en face aortas were used to prepare aortic root cross sections followed by determination of en face and sinus lesions with Oil Red O staining. All the images were obtained with a microscope and quantified lesion areas in en face aorta by a computer-assisted image analysis protocol (Photoshop CS6). Necrotic core area, fibrous cap area, expression of MOMA-2, CD68, and α-SMA protein in lesion were determined by H&E and immunofluorescent staining with aortic root cross sections.

peritoneal macrophages = test: Macrophage polarization and LPS-induced inflammation in vitro; assay type: cell-based, mouse
Experimental: (§3) Human aortic smooth muscle cells (HASMCs) were cultured in a completed DMEM F12 medium (10% fetal bovine serum, 50 μg/mL penicillin, and 50 μg/mL streptomycin). Peritoneal macrophages were cultured in complete RPMI1640 medium (10% fetal bovine serum, 50 μg/mL penicillin, 50 μg/mL streptomycin and 2 mM glutamine). HASMCs or peritoneal macrophages were seeded on a 6-well plate at the density of 3×10^5 cells per well before treatment. […] After treatment, total cellular proteins were extracted from peritoneal macrophages for determination of ABCA1 and ABCG1 by western blot, as previously described. Expression of CD68, SM22α, iNOS, CD206, TNF-α, IL-6, and IL-1β mRNA in HASMCs or macrophages was determined by quantitative real-time polymerase chain reaction (qRT-PCR) with total RNA extracted from cells and the primers listed in Table 1 and normalized to GAPDH mRNA levels in the corresponding samples.

[7] = test system: atherosclerotic lesions in apoE-/- mice; test: Atherosclerotic lesion formation, Oil Red O staining; assay type: in vivo, mouse; conditions: high-fat diet 16 weeks, s.c. 100 μL of 1 μM weekly, n=15
Experimental: Male apoE^‑/‑ mice (~22 g bodyweight, ~8 weeks old) were purchased from the Beijing Vital River Laboratory Animal Technology Co., Ltd, which were used to set up the atherosclerotic model, as previously described[66]. ApoE^-/- mice were randomly assigned into six groups (15 per group) and fed with HFD (21% fat plus 0.5% cholesterol; Mediscience, Ltd, Jiangsu, China; Cat No. MD12015A) for 16 weeks. ApoE^-/- mice in the different groups were subcutaneously injected with either saline (100 µL, n=15), IGF-1 protein (1 μM, 100 μL, n=15), H1 (1 μM, 100 μL, n=15), H2 (1 μM, 100 μL, n=15), H3 (1 μM, 100 μL, n=15) or H4 (1 μM, 100 μL, n=15) weekly. At the end of the experiment, all mice were euthanatized by an overdose of 2,2,2-tribromoethanol (640 mg/kg, IP injection), followed by collection of aortas, blood, and peritoneal macrophages. […] The en face aortas were used to prepare aortic root cross sections followed by determination of en face and sinus lesions with Oil Red O staining. All the images were obtained with a microscope and quantified lesion areas in en face aorta by a computer-assisted image analysis protocol (Photoshop CS6).

peritoneal macrophage = test: Cholesterol efflux of peritoneal macrophage; assay type: cell-based, mouse; conditions: n=5, Figures S14 and S15B
Experimental: page 8: Figure S14. Cholesterol efflux of peritoneal macrophage were assessed after treatment as indicated, n=5. […] Figure S15. Effects of Npx and IGF-1 mimetic peptide on inflammation and cholesterol efflux. (A) qRT-PCR analysis of TNFα and IL-1β in macrophage after indicated treatment, n=5. (B) Cholesterol efflux of peritoneal macrophage were assessed after treatment as indicated, n=5. […]

[8] = test system: ABCA1 and ABCG1 in peritoneal macrophages; test: ABCA1 and ABCG1 expression by western blot; assay type: cell-based, mouse; conditions: 10 nM overnight, versus GAPDH, n=5
Experimental: as §3

HASMCs = test: VSMC switch to macrophage-like phenotype (αSMA immunofluorescence, CD68 and SM22α qRT-PCR); assay type: cell-based, human; conditions: n=5
Experimental: as §3

apoE-/- mice = test: Inflammation and macrophage phenotype in vivo (aortic root immunofluorescence, serum ELISA, aorta qRT-PCR); design: species or system mouse
Excerpt: as §2

[9] = male apoE-/- mice, HFD 16 weeks, s.c. weekly, mean ± SD, n=15
[10] = 10 nM with ox-LDL 50 µg·mL^-1 overnight, qRT-PCR, versus ox-LDL-treated cells
[11] = peritoneal macrophages, LPS 100 ng·mL^-1 2 h then 10 nM overnight, immunofluorescent staining, versus control, n=5
[12] = double immunofluorescence staining with MOMA2, n=15

Nap-FFGGYGSSSRRAPQT [self-assembling peptide reported earlier by the authors]
binding affinity to the receptor of IGF-1 (receptor of IGF-1): high binding affinity

Nap-FFGSRSS [Compound H4, control without naproxen and with a scrambled tetrapeptide of SSSR]
dissociated constant (KD) with rhIGF-1R [1]: Non KD
dissociated constant (KD) with rhIGF-1R ([1]; listed as Compound 4): no binding at all
transparency (mean transmittance) of hydrogel [2]: 71.08%
diameter of entangled nanofibers [3]: ~17.3 nm
storage modulus (G') [4]: 100 Pa
number of foam cells [5]: almost no decrease
HDL-C [6, 9]: 2.34 ± 0.76 mM
LDL-C [6, 9]: 4.45 ± 1.23 mM
TG (triglyceride) [6, 9]: 0.52 ± 0.08 mM
Total-C (serum total cholesterol) [6, 9]: 16.63 ± 2.05 mM
BW ([6]; mouse, in vivo, sc, SD): 26.81 ± 2.06 g

COc1ccc2cc([C@H](C)C(=O)O)ccc2c1 [Npx, naproxen, reference compound]
LPS-induced inflammation, components compared (Figure S15A) (peritoneal macrophages; macrophage in presence of LPS, qRT-PCR of TNF and IL-1, n=5): partly blocked LPS-induced inflammation

COc1ccc2cc([C@H](C)C(=O)N[C@H](Cc3ccccc3)C(=O)N[C@H](Cc3ccccc3)C(=O)NCC(=O)N[C@@H](CO)C(=O)N[C@@H](CO)C(=O)N[C@@H](CO)C(=O)N[C@@H](CCCNC(=N)N)C(=O)O)ccc2c1 [Compound H1, Npx-^DF^DFGSSSR] (Naproxen-[dF][dF]GSSSR-OH)
BW ([6]; mouse, in vivo, sc, SD): 26.49 ± 2.14 g

N=C(N)NCCC[C@H](NC(=O)[C@H](CO)NC(=O)[C@H](CO)NC(=O)[C@H](CO)NC(=O)CNC(=O)[C@H](Cc1ccccc1)NC(=O)[C@H](Cc1ccccc1)NC(=O)Cc1ccc2ccccc2c1)C(=O)O [Compound H3, Nap-FFGSSSR] ({Acetyl(2-naphthyl)}-FFGSSSR-OH)
Kd [1]: 230 nM
BW [6, 9]: 26.79 ± 1.77 g

Insulin-like growth factor (IGF)-1 [IGF-1]
decrease in plaque size at the aortic root [7]: ~ 53%
reduction in lesion area, en face aorta [7]: ~ 42%
number of foam cells [5]: 22.0%
cholesterol efflux from peritoneal macrophage (peritoneal macrophage): more effective than Npx
expression of ABCA1 and ABCG1 in macrophages [8]: significantly enhanced expression
α-SMA expression in VSMCs (HASMCs; 10 nM overnight, immunofluorescent staining, versus control): expressed more α-SMA
CD68 expression in VSMCs (HASMCs; [10]): less CD68
SM22α expression in VSMCs (HASMCs; [10]): more SM22α
Arg1 expression in macrophages in vitro (peritoneal macrophages; [11]): more Arg1
CCR7 expression in macrophages in vitro (peritoneal macrophages; [11]): expressed less CCR7
Arg1 expression in aortic root macrophages in vivo (apoE-/- mice; [12]): induced the expression of Arg1
CCR7 expression in aortic root macrophages in vivo (apoE-/- mice; [12]): inhibited the expression of CCR7
expression of proinflammatory cytokines in aortas (apoE-/- mice; qRT-PCR of TNF-α and IL-6, n=8): reduced the expression of these cytokines
HDL-C [6, 9]: 2.35 ± 0.89 mM
LDL-C [6, 9]: 4.08 ± 1.42 mM
TG (triglyceride) [6, 9]: 0.51 ± 0.13 mM
Total-C (serum total cholesterol) [6, 9]: 15.47 ± 2.76 mM
BW ([6]; mouse, in vivo, sc, SD): 25.04 ± 1.83 g

COc1ccc2cc([C@H](C)C(=O)N[C@@H](Cc3ccccc3)C(=O)N[C@@H](Cc3ccccc3)C(=O)NCC(=O)N[C@@H](CO)C(=O)N[C@@H](CO)C(=O)N[C@@H](CO)C(=O)N[C@@H](CCCNC(=N)N)C(=O)O)ccc2c1 [Compound H2, Npx-FFGSSSR] (Naproxen-FFGSSSR-OH)
BW ([6]; mouse, in vivo, sc, SD): 25.55 ± 2.31 g
